Measured values taken from patent US9402839B2, “Selective targeting agents for mitochondria” (University of Pittsburgh—Of the Commonwealth System of …, priority 2006, dated 2016).

Tests used:
[1] = system: rat ileal mucosal permeability; test: Intestinal mucosal permeability assay (FD4 clearance, everted gut sacs) after pressure-controlled hemorrhagic shock; assay type: in vivo; details: intraluminal
Method: Intestinal mucosal permeability assay. Animals were allowed access to water but not food for 24 h prior to the experiment in order to decrease the volume of intestinal contents. The rats were instrumented as described above.
A midline laparotomy was performed and the small intestine was exteriorized from the duodenojejunal junction to the ileocecal valve. A small incision was made on the antimesenteric aspect of the proximal small intestine and saline solution (1.5 ml) was injected. The bowel was ligated proximally and distally to the incision with 4-0 silk (LOOK, Reading, Pa.).
The small intestine was compressed gently in aboral direction along its length to displace intestinal contents into the colon. Starting 5 cm from the ileocecal valve, the ileum was partitioned into six contiguous water-tight segments. Each segment was 3 cm long and was bounded proximally and distally by constricting circumferential 4-0 silk sutures. Care was taken to ensure that the vascular supply to intestine was not compromised, and each segment was well-perfused.
Two randomly selected segments in each rat were injected with 0.3 ml of vehicle and served as “no treatment” controls. In order to fill the segments, a small incision was made and the solution was injected using a Teflon catheter (ABBOCATH 16Ga, ABBOTT LABORATORIES).
The remaining four other segments were injected with solutions containing either 4-hydroxy-2,2,6,6-tetramethylpiperidine-N-oxyl (TEMPOL) or one of the Gramicidin S-based compounds. Four different final concentrations of TEMPOL in normal saline were evaluated: 0.1, 1, 5 and 20 mM. The hemigramicidin-based compounds were dissolved in a mixture of dimethylsulfoxide (DMSO) and normal saline (1:99 v/v) and injected at final concentrations of 0.1, 1, 10 or 100 μM.
After the segments were loaded with saline or the test compounds, the bowel was replaced inside the peritoneal cavity and the abdominal incision was temporarily closed using Backhaus forceps.
After a 5 min stabilization period, hemorrhagic shock was induced by withdrawing blood via the jugular catheter. MAP was maintained at 30±3 mm Hg for 2 hours. The shed blood was re-infused as needed to maintain MAP within the desired range.
After 2 h of shock, the animals were euthanized with an intracardiac KCl bolus injection. The ileum was rapidly excised from the ileocecal valve to the most proximal gut segment. The tips of each segment were discarded. In order to assay caspases 3 and 7 activity and phospholipids peroxidation, mucosa samples were collected from gut segments immediately after hemorrhage and stored at −80° C. For permeability measurements, each segment was converted into an everted gut sac, as previously described by Wattanasirichaigoon et al., see Wattanasirichaigoon, S. et al., Effect of mesenteric ischemia and reperfusion or hemorrhagic shock on intestinal mucosal permeability and ATP content in rats, SHOCK, 12:127-133 (1999).
Briefly, as per the Wattanasirichaigoon protocol referenced above, the sacs were prepared in ice-cold modified Krebs-Henseleit bicarbonate buffer (“KHBB”), pH 7.4. One end of the gut segment was ligated with a 4-0 silk suture; the segment was then everted onto a thin plastic rod. The resulting gut sac was mounted on a Teflon catheter (Abbocath 16GA, Abbot Laboratories) connected to a 3 ml plastic syringe containing 1.5 ml of KHBB. The sac was suspended in a beaker containing KHBB plus fluorescein-isothiocyanate labeled dextran (average molecular mass 4 kDa; FD4; 0.1 mg/ml). This solution was maintained at 37° C., and oxygenated by bubbling with a gas mixture (O2 95%/CO2 5%). After 30 min, the fluid within the gut sac was collected. The samples were cleared by centrifugation at 2000 g for 5 min.
Fluorescence of FD4 in the solution inside the beaker and within each gut sac was measured using a fluorescence spectrophotometer (LS-50, PERKIN-ELMER, Palo Alto, Calif.) at an excitation wavelength of 492 nm and an emission wavelength of 515 nm. […]

MECs = test: Determination of intracellular superoxide radicals (DHE oxidation, flow cytometry) in ActD-treated MECs; assay type: cell-based, mouse; details: 10 μM pretreatment, ActD 100 ng/mL; nearly two-fold ActD-induced increase
Method: Determination of intracellular superoxide radicals Oxidation-dependent fluorogenic dye, dihydroethidium (“DHE”, Molecular Probes) was used to evaluate intracellular production of superoxide radicals. DHE is cell permeable and, in the presence of superoxide, is oxidized to fluorescent ethidium which intercalates into DNA. The fluorescence of ethidium was measured using a FACscan (BECTON-DICKINSON, Rutherford, N.J.) flow cytometer, equipped with a 488-nm argon ion laser and supplied with the Cell Quest software. Mean fluorescence intensity from 10,000 cells were acquired using a 585-nm bandpass filter (FL-2 channel).

In the case of `CC(C)C[C@@H](/C=C/[C@H](Cc1ccccc1)C(=O)N1CCC[C@H]1C(=O)N[C@H](C(=O)N[C@@H](CCCNC(=O)OCc1ccccc1)C(=O)NC1CC(C)(C)N([O])C(C)(C)C1)C(C)C)NC(=O)OC(C)(C)C` [XJB-5-131], the “lowest effective concentration against ileal mucosal hyperpermeability” value [1] was 1 µM, the “protection against hemorrhagic shock-induced ileal mucosal hyperpermeability” value ([1]; 0.1-100 μM, 2 h shock) was “significantly ameliorated” and the “potency relative to TEMPOL” value ([1]; gut mucosal protection) was about 1000 fold. For the same molecule, the “hemorrhagic shock-induced mucosal hyperpermeability relative to control value” ([1]; control segments loaded with vehicle) was “approximately 60%” and the “intracellular superoxide generation in MECs” value (MECs) was “completely inhibited”.
